Data on eleven compounds can be found in ChEMBL document CHEMBL4689842, “EUbOPEN Chemogenomics Library wave 1” (2021).

The subject of this series is HEK-293T. As to the kind of experiment: Incucyte cell viability with HEK293T. Further: filed as whole numbers so only -1 and 0 and 1 occur. It counts as toxicity, cell-based. The conditions noted are these: human, 10 µM, compound concentration 10 uM.
[1] abbreviates: 0 h, replicate number 2, timepoint 0 hours.
The mark [2] stands for this setting: 6 h, replicate number 1, timepoint 6 hours.
The mark [3] stands for this setting: 12 h, replicate number 1, timepoint 12 hours.
The mark [4] stands for this setting: 18 h, replicate number 1, timepoint 18 hours.
[5] abbreviates: 24 h, replicate number 1, timepoint 24 hours.
The mark [6] stands for this setting: 0 h, replicate number 1, timepoint 0 hours.

Structures are written as SMILES.

In the case of `CC(C)NCC(O)COc1ccc(CCOCC2CC2)cc1.Cl` (configuration not stated) [BETAXOLOL HYDROCHLORIDE], the “Growth Rate” value by setting is: under setting [1], 0; under setting [2], 0; (6 h, replicate number 2, timepoint 6 hours) 1; under setting [3], 0; under setting [4], 0; under setting [5], 0.

Turning to `COc1cc2nccc(Oc3ccc(NC(=O)Nc4cc(C)on4)c(Cl)c3)c2cc1OC.O`, the “Growth Rate” value under setting [1] worked out at 0; the “Growth Rate” value under setting [2] worked out at 0; the “Growth Rate” value under setting [3] was 0; the “Growth Rate” value under setting [4] amounted to 0; the “Growth Rate” value under setting [5] was found to be 0.

As to `Cc1nc(Nc2n[nH]c3c2CN(C(=O)N[C@H](CN(C)C)c2ccccc2)C3(C)C)c2sccc2n1` [PF-03758309], the “Growth Rate” value is on record as 0 under setting [2], 0 under setting [3], 0 under setting [4] and 0 under setting [5].

Consider `CN1CCC[C@@H]1CCO[C@](C)(c1ccccc1)c1ccc(Cl)cc1.O=C(O)/C=C/C(=O)O` [CLEMASTINE FUMARATE], for which the “Growth Rate” value under setting [1] is on record as 1; the “Growth Rate” value under setting [2] was 0; the “Growth Rate” value under setting [3] was found to be 0; the “Growth Rate” value under setting [4] is on record as 0; the “Growth Rate” value under setting [5] is on record as 0.

With `COc1cc(-n2cnc3cc(-c4ccc(Cl)cc4)sc3c2=O)ccc1OCCN1CCCC1`, the “Growth Rate” value reads like this: under setting [1], 1; under setting [2], 0; under setting [3], 0; under setting [4], 0; under setting [5], 0.

Regarding `Cc1cc(C)cc(-c2cnc3cc(Cl)c(-c4cccc(O)c4)cc3c2OCCCN)c1`, the “Growth Rate” value reads like this: under setting [1], 1; under setting [2], 0; under setting [3], 0; under setting [4], 0; under setting [5], 0.

Consider `Cn1cc(-c2[nH]c3cc(NC(=O)[C@H](N)C4CCCCC4)cc4c3c2C=NNC4=O)cn1`, for which the “Growth Rate” value is, setting by setting: under setting [2], 0; under setting [3], 0; under setting [4], 0; under setting [5], 0.

As for `NC(=O)Nc1cc(-c2cccc(F)c2)sc1C(=O)N[C@H]1CCCNC1` [AZD-7762], the “Growth Rate” value by setting is: under setting [6], 0; under setting [1], 1; under setting [2], 0; under setting [3], 0; under setting [4], 0; under setting [5], 0.

With `C=CC(=O)Nc1cccc(C(=O)Nc2ccc(Nc3cc(-c4[nH]c(SC)nc4C)ccn3)cc2)c1`, the “Growth Rate” value by setting is: under setting [6], 0; under setting [1], 1; under setting [2], 0; under setting [3], 0; under setting [4], 0; (18 h, replicate number 2, timepoint 18 hours) 1. In addition, the “Growth Rate” value under setting [5] came to 0.

On to `COc1ccc(Oc2cc(NCCC(F)(F)F)c3ncc(-c4ccc(C(=O)NC5CC5)c(C)c4)n3n2)c(F)c1F` [BAY-1217389], for which the “Growth Rate” value under setting [6] came to 0; the “Growth Rate” value under setting [2] amounted to 0; the “Growth Rate” value under setting [3] is reported as 0; the “Growth Rate” value under setting [4] is 0; the “Growth Rate” value under setting [5] stood at 0.

On to `COc1cccc([C@@H](C)NCCCc2ccccc2Cl)c1.Cl` [TECALCET HYDROCHLORIDE], for which the “Growth Rate” value reads like this: under setting [1], 0; under setting [2], 0; under setting [3], 0; under setting [4], 0; under setting [5], 0.
